Entries after “also recorded” stand apart in the source; their conditions may differ.
Columns and labels:
[1] = system: carp adipocytes; experiment: Determination of insulin activity in vitro: D-14C-glucose uptake by adipocytes; assay type: cell-based, carp Catla catla
Procedure: (b) Effect of AdpInsl and porcine insulin (PI) on glucose uptake by carp adipocytes. Adipocytes 1×10^5 cells/incubation, suspended in MEM containing 1% fetal calf serum and preincubated for 2 hours in the absence of insulin, after addition of D-^14C-glucose uptake was determined by the procedure described under the “Experimental procedures”. *p<0.05 when AdpInsl is compared with porcine insulin.
Determination of insulin activity in vitro—Freshly prepared adipocytes were suspended in the MEM and after 2 h 1.0 microCi of D-(^14C) glucose (final concentration 25 uM| containing was added to the adipocyte incubation. 25 ng/ml of AdpInsl or porcine insulin was added to the incubation and uptake of glucose was measured by following a previously described method (21). Initial rates of glucose uptake was determined from the incubation of adipocyte without insulin. The reaction was stopped at 3 min by washing the cells three times with ice cold MEM in the presence of 0.3 mM phloretin to correct the glucose uptake data from simple diffusion and nonspecific trapping of radioactivity.

[2] = system: streptozotocin induced diabetic rat; experiment: Biological activity of purified adipocyte insulin on streptozotocin induced diabetic rat; assay type: in vivo
Procedure: FIG. 5. Determination of biological activity of purified adipocyte insulin on streptozotocin induced diabetic rat. (a) The male Sprague Dawley rats of 100–150 g weight were selected for streptozotocin (STZ) treatment. […] (A) STZ untreated rats, only vehicle (0.9% saline) injected (n-6), (B) STZ rat, vehicle injected (n-6), (C) STZ rat injected with AdpInsl 10 μg/100 g body wt of rat (n-6). (D) STZ rat injected with 10 ug/100 g body wt of rat (n=6J porcine insulin. Each value is ±SEM of 6 observations. p<0.001 when C is compared with B,**p<0.05 when C is compared with D.
Insulin injection-Adipocyte IR-insulin (20 ug per 100 gm body weight) from incubation medium or 10 ug AdpInsl or porcine insulin was intraperitoneally injected into the male Sprague Dawley rats weighing between 100–150 g. After 6 hrs of injection blood was collected by retroorbital puncture using capillary tube, centrifuged to collect plasma and glucose content was determined by glucose-glucose oxidase method.

Substance: AdpInsl: Insulin purified from Catla catla carp adipocytes, A chain SEQ ID No. 1 (21 aa), B chain SEQ ID No. 2 (30 aa) (chain 1 GIVEQCCHKPCSIFELQNYCN; chain 2 PGAPQHLCGSHLVDALYLVCGPTGFFYNPK; listed as Catla catla)
- increase in glucose uptake by adipocyte ([1]; 25 ng/ml insulin, 1x10^5 cells/incubation, uptake stopped at 3 min): more than 2 fold
- stimulation of glucose uptake compared with porcine insulin ([1]; 25 ng/ml of each insulin, p<0.05): significantly higher; also recorded: more actively than porcine insulin
- hypoglycemic activity greater than porcine insulin ([2]; STZ rat, 10 ug/100 g body wt each insulin, p<0.05): 25%
- hyperglycemia ([2]; STZ rat, 10 ug/100 g body wt i.p., 6 hrs, p<0.001 compared with control): significantly reduced hyperglycemia
- hypoglycemic effect compared to porcine insulin ([2]; streptozotocin induced diabetic rat): significantly stronger hypoglycemic effect

— US7129211B2, “Adipocyte Insulin adpinsl with Insulin A and B chains and an effective method of treating type 2 diabetes in a subject using adipocyte insulin” (Council of Scientific and Industrial Research, priority 2002, dated 2006)
